Reference: publication PMC9090415, “Discovery of small molecule inhibitors of Plasmodium falciparum apicoplast DNA polymerase” (Journal of Enzyme Inhibition and Medicinal Chemistry, 2022)

Molecular target: P. falciparum apicoplast DNA polymerase (Pf-apPOL) (Plasmodium falciparum, UniProt Q8ILY1)
Assay: Fluorescence-based high-throughput DNA polymerase assay (molecular beacon), primary screen and dose-response
Assay type: biochemical
Experimental: The HT assay employs a molecular beacon, a stem-loop DNA template with a Cy3 dye and the Black Hole Quencher on the 3′ and 5′ ends of the DNA, respectively. Pf-apPOL concentration is based on a calculated absorptivity of ε280 = 56750 M^−1 cm^−1. Reactions were carried out at 25 °C, using Corning 3575 […] (well-volume, 20 µL). Assays testing for compound inhibition composed of reaction buffer (pH 7.9 in 50 mM potassium acetate, 20 mM Tris-acetate and 10 mM magnesium acetate), Pf-apPOL (20 nM), DNA substrate (20 nM), dNTPs (6 µM), and compound (10 µM in DMSO). The DNA and nucleotide substrates (dNTPs) were at concentrations of 20 nM and 6 µM, respectively, in the assay. Pf-apPOL was incubated in the reaction buffer with dNTPs and the compound of interest (10 µM, in the assay) at 25 °C for 10 min. The DNA substrate was then added and the reaction was allowed to proceed for 90 min at 25 °C.
Each assay plate contained 16 negative controls (no Pf-apPOL, DMSO present) and 16 positive controls (Pf-apPOL present, no DMSO). The fluorescence of each well was determined using a BioTek Synergy Neo fluorescence plate reader using excitation and emission wavelengths of 555 and 570 nm, respectively.
In the above, Min is the average of fluorescence emission of the negative controls (substrate only), Max the average fluorescence emission from the positive controls (enzyme + substrate), and Test the emission from the assays in the presence of compounds (enzyme + compound + substrates). […] […] The IC50 of each compound was determined using Equation (2): (2) IC50= Vmax/(1+ (I/IC50)^n)
In the above, n measures cooperativity, with n > 1 indicating synergistic binding of more than a single molecule of the compound.
To identify apPOL inhibitors we utilised our previously developed high-throughput DNA polymerase assay. The HT assay is based on a molecular beacon DNA template that forms a stem-loop with a Cy3 dye and the Black Hole Quencher on the 3′ and 5′ ends of the DNA, respectively. DNA polymerase activity extends an annealed primer through the stem region, displacing the fluorophore from the quencher, thereby increasing its fluorescence (Figure 1(A)). The assay accurately recapitulates the kinetic behaviour of apPOL, as measured through more conventional low-throughput gel-based assays. The Z′ factor for the assay described here was 0.9 across all plates (data not shown).
Figure 1. High-throughput screening. (A) The fluorescent-based DNA polymerase assay used to screen the compound libraries. The DNA template strand is a hairpin loop with a primer annealed to the loop. The 3’ end of the primer is 11 bases away from the 6 bp duplex. Strand displacement activity of the DNA polymerase separates the Cy3 dye from the Black hole quencher leading to an increase in fluorescent signal. (B) The high-throughput assay workflow. The DNA polymerase is incubated with […] compound for 10 min prior to addition of the hairpin substrate. The reaction is quenched at 3 different time points and the fluorescent signal is measured and % inhibition is determined using the provided equation.

P. falciparum apicoplast DNA polymerase (Pf-apPOL), sequence (Q8ILY1 entry or part of it): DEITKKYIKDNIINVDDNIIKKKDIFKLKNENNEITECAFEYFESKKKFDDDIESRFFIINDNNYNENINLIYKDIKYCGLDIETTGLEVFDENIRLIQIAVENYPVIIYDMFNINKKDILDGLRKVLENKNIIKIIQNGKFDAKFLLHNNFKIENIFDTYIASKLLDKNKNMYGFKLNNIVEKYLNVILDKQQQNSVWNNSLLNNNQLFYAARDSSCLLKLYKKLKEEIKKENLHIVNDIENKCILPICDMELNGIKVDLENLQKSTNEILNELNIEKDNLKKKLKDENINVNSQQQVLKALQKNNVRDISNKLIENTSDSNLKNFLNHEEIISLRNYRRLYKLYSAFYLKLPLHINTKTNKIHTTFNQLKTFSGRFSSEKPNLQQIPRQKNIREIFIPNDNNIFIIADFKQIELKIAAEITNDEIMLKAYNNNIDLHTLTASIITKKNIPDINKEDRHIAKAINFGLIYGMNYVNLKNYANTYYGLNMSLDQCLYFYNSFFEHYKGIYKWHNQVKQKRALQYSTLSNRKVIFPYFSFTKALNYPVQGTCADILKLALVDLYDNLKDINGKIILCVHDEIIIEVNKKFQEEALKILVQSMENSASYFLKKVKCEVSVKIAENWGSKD

Structure (SMILES): Cc1nn(CC(=O)NCCSCc2ccco2)c(C)c1Br [KU0267182]
- DNA Pol (186 hits, value of the hit list (primary screen); unit not given; 90 min, 10 µM): 72
- % inhibition Apo pol 10' (DRC-1; 10'; concentration 2.5): 1.812%
- % inhibition Apo pol 10' (DRC-1; 10'; concentration 5): 6.711%
- % inhibition Apo pol 10' (DRC-1; 10'; concentration 10): 15.4752%
- % inhibition Apo pol 10' (DRC-1; 10'; concentration 20): 17.8463%
- % inhibition Apo pol 10' (DRC-1; 10'; concentration 40): 47.0773%
- % inhibition Apo pol 10' (DRC-1; 10'; concentration 80): 72.2462%
- % inhibition Apol 90' (DRC-1; 90'; concentration 2.5): -1.178%
- % inhibition Apol 90' (DRC-1; 90'; concentration 5): 2.416%
- % inhibition Apol 90' (DRC-1; 90'; concentration 10): 7.223%
- % inhibition Apol 90' (DRC-1; 90'; concentration 20): 9.063%
- % inhibition Apol 90' (DRC-1; 90'; concentration 40): 29.9709%
- % inhibition Apol 90' (DRC-1; 90'; concentration 80): 56.479%
- % inhibition apPOL 180' (DRC-1; 180'; concentration 2.5): -4.52%
- % inhibition apPOL 180' (DRC-1; 180'; concentration 5): -1.314%
- % inhibition apPOL 180' (DRC-1; 180'; concentration 10): 2.547%
- % inhibition apPOL 180' (DRC-1; 180'; concentration 20): 1.732%
- % inhibition apPOL 180' (DRC-1; 180'; concentration 40): 16.5888%
- % inhibition apPOL 180' (DRC-1; 180'; concentration 80): 39.2205%
- % inhibition Apo pol 5' (DRC-2, 5', concentration 2.5): 6%
- % inhibition Apo pol 5' (DRC-2, 5', concentration 5): 7.46%
- % inhibition Apo pol 5' (DRC-2, 5', concentration 10): 16%
- % inhibition Apo pol 5' (DRC-2, 5', concentration 20): 23%
- % inhibition Apo pol 5' (DRC-2, 5', concentration 40): 43%
- % inhibition Apo pol 5' (DRC-2, 5', concentration 80): 55%
- % inhibition Apol 40' (DRC-2, 40', concentration 2.5): 7.41%
- % inhibition Apol 40' (DRC-2, 40', concentration 5): 7%
- % inhibition Apol 40' (DRC-2, 40', concentration 10): 15%
- % inhibition Apol 40' (DRC-2, 40', concentration 20): 21%
- % inhibition Apol 40' (DRC-2, 40', concentration 40): 45%
- % inhibition Apol 40' (DRC-2, 40', concentration 80): 64%
- % inhibition ApPOL 90' (DRC-2, 90', concentration 2.5): 6%
- % inhibition ApPOL 90' (DRC-2, 90', concentration 5): 4%
- % inhibition ApPOL 90' (DRC-2, 90', concentration 10): 12%
- % inhibition ApPOL 90' (DRC-2, 90', concentration 20): 16%
- % inhibition ApPOL 90' (DRC-2, 90', concentration 40): 39%
- % inhibition ApPOL 90' (DRC-2, 90', concentration 80): 63%
- % inhibition apPOL 180' (DRC-2, 180', concentration 2.5): 0.763%
- % inhibition apPOL 180' (DRC-2, 180', concentration 5): -0.774%
- % inhibition apPOL 180' (DRC-2, 180', concentration 10): 3.79%
- % inhibition apPOL 180' (DRC-2, 180', concentration 20): 7.41%
- % inhibition apPOL 180' (DRC-2, 180', concentration 40): 27%
- % inhibition apPOL 180' (DRC-2, 180', concentration 80): 55%
- % inhibition Apo pol 5' (DRC-2; 5'; concentration 2.5): 6%
- % inhibition Apo pol 5' (DRC-2; 5'; concentration 10): 16%
- % inhibition Apo pol 5' (DRC-2; 5'; concentration 80): 55%
- % inhibition Apol 40' (DRC-2; 40'; concentration 2.5): 7.41%
- % inhibition ApPOL 90' (DRC-2; 90'; concentration 2.5): 6%
- % inhibition ApPOL 90' (DRC-2; 90'; concentration 20): 16%
- % inhibition apPOL 180' (DRC-2; 180'; concentration 20): 7.41%
- % inhibition apPOL 180' (DRC-2; 180'; concentration 80): 55%
- DNA Pol (primary screen value, 'DNA Pol' only; 90 min, 10 µM): 72

Structure (SMILES): COc1cc(Cl)c(C)cc1NC(=O)Cn1ccc2c(=O)[nH]ccc21 [Molecule 33, COc1cc(Cl)c(cc1NC(=O)Cn1ccc2c1cc[nH]c2=O)C]
- % inhibition Apo pol 10' (DRC-1; 10'; concentration 2.5): 1.493%
- % inhibition Apo pol 10' (DRC-1; 10'; concentration 5): 13.6047%
- % inhibition Apo pol 10' (DRC-1; 10'; concentration 10): 50.6447%
- % inhibition Apo pol 10' (DRC-1; 10'; concentration 20): 68.9678%
- % inhibition Apo pol 10' (DRC-1; 10'; concentration 40): 82.7027%
- % inhibition Apo pol 10' (DRC-1; 10'; concentration 80): 78.8716%
- % inhibition Apol 90' (DRC-1; 90'; concentration 2.5): -1.924%
- % inhibition Apol 90' (DRC-1; 90'; concentration 5): 4.488%
- % inhibition Apol 90' (DRC-1; 90'; concentration 10): 37.9384%
- % inhibition Apol 90' (DRC-1; 90'; concentration 20): 62.017%
- % inhibition Apol 90' (DRC-1; 90'; concentration 40): 81.936%
- % inhibition Apol 90' (DRC-1; 90'; concentration 80): 83.5925%
- % inhibition apPOL 180' (DRC-1; 180'; concentration 2.5): -6.054%
- % inhibition apPOL 180' (DRC-1; 180'; concentration 5): -2.934%
- % inhibition apPOL 180' (DRC-1; 180'; concentration 10): 23.1917%
- % inhibition apPOL 180' (DRC-1; 180'; concentration 20): 50.4837%
- % inhibition apPOL 180' (DRC-1; 180'; concentration 40): 76.46%
- % inhibition apPOL 180' (DRC-1; 180'; concentration 80): 83.9917%
- % inhibition Apo pol 5' (DRC-2; 5'; concentration 2.5): -0.547%
- % inhibition Apo pol 5' (DRC-2; 5'; concentration 5): 14%
- % inhibition Apo pol 5' (DRC-2; 5'; concentration 10): 36%
- % inhibition Apo pol 5' (DRC-2; 5'; concentration 20): 42%
- % inhibition Apo pol 5' (DRC-2; 5'; concentration 40): 40%
- % inhibition Apo pol 5' (DRC-2; 5'; concentration 80): 31%
- % inhibition Apol 40' (DRC-2; 40'; concentration 2.5): -1.56%
- % inhibition Apol 40' (DRC-2; 40'; concentration 5): 18%
- % inhibition Apol 40' (DRC-2; 40'; concentration 10): 46%
- % inhibition Apol 40' (DRC-2; 40'; concentration 20): 60%
- % inhibition Apol 40' (DRC-2; 40'; concentration 40): 62%
- % inhibition Apol 40' (DRC-2; 40'; concentration 80): 57%
- % inhibition ApPOL 90' (DRC-2; 90'; concentration 2.5): -2%
- % inhibition ApPOL 90' (DRC-2; 90'; concentration 5): 15%
- % inhibition ApPOL 90' (DRC-2; 90'; concentration 10): 45%
- % inhibition ApPOL 90' (DRC-2; 90'; concentration 20): 61%
- % inhibition ApPOL 90' (DRC-2; 90'; concentration 40): 65%
- % inhibition ApPOL 90' (DRC-2; 90'; concentration 80): 63%
- % inhibition apPOL 180' (DRC-2; 180'; concentration 2.5): -9%
- % inhibition apPOL 180' (DRC-2; 180'; concentration 5): 6.65%
- % inhibition apPOL 180' (DRC-2; 180'; concentration 10): 35%
- % inhibition apPOL 180' (DRC-2; 180'; concentration 20): 56%
- % inhibition apPOL 180' (DRC-2; 180'; concentration 40): 67%
- % inhibition apPOL 180' (DRC-2; 180'; concentration 80): 68%
- DNA Pol (primary screen value by plate and well; 90 min, 10 µM): 43
- DNA Pol (primary screen value of the 186 hits; unit not given; 90 min, 10 µM): 43
